Assay results as given in PubChem BioAssay (NCI).
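A five-concentration, 48-hour dose response in 96-well plates underlies each endpoint, interpolated linearly between surrounding concentrations. GI50: concentration for 50% inhibition of growth. TGI is the concentration that stops growth completely.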

Key:
Experiment in all cases: NCI tumour cell line growth inhibition, 48 h
[1] = test system: 786-0 renal
[2] = test system: A549 NSCLC
[3] = test system: EKVX NSCLC
[4] = test system: HCT-15 colon
[5] = test system: HOP-92 NSCLC
[6] = test system: MDA-MB-231 breast
[7] = test system: MDA-MB-435
[8] = test system: RPMI-8226 leukemia
[9] = test system: SNB-19 CNS
[10] = test system: HOP-62 NSCLC

SMILES | TGI [1] | TGI [2] | TGI [3] | TGI [4] | TGI [5] | TGI [6] | TGI [7] | TGI [8] | TGI [9] | TGI [10] | GI50 [2] | GI50 [3] | GI50 [4] | GI50 [10] | GI50 [5] | GI50 [6] | GI50 [7] | GI50 [8] | GI50 [9]
Cc1ccc(/C(O)=C/C(=O)C(=O)NN=C(c2ccccc2)c2ccccc2)cc1 | > 100 µM | > 100 µM | > 100 µM | > 100 µM | > 100 µM | > 100 µM | > 100 µM | > 100 µM | > 100 µM |  |  |  |  |  |  |  |  |  | 
CCOc1cc(NC(C)=O)ccc1C(=O)NN1C(=O)C(Cl)C1c1ccco1 (stereo not given) | 30.8 µM | 38.8 µM | 36.2 µM | 46.6 µM | 35.3 µM | 31.1 µM | 32.3 µM | 45.5 µM | 32.1 µM | 35.7 µM |  |  |  |  |  |  |  |  | 
COc1cccc(N2C(=O)C3c4[nH]c5ccc(C)cc5c4C4CCC(C(C)(C)C)CC4C3C2=O)c1 (stereo not given) |  | > 10 µM | > 10 µM | > 10 µM |  | > 10 µM | > 10 µM | > 10 µM | > 10 µM | > 10 µM |  |  |  |  |  |  |  |  | 
CSCCC(NC(=O)Cc1ccc(C(=O)c2ccccc2)cc1)C(=O)O (stereo not given) | > 100 µM | > 100 µM | > 100 µM | > 100 µM | > 100 µM | > 100 µM | > 100 µM |  | > 100 µM | > 100 µM |  |  |  |  |  |  |  |  | 
COc1cc(/C=C(/C#N)C(N)=O)ccc1O |  | > 100 µM | > 100 µM | > 100 µM | > 100 µM |  |  | > 100 µM | > 100 µM | > 100 µM |  |  |  |  |  |  |  |  | 
CC1OC(OC2C(OC(=O)[C@@H]3CC(C)(C)C[C@H]4C5=CC[C@@H]6[C@@]7(C)C[C@H](O)[C@H](OC8OC(CO)C(O)C(O)C8O)[C@@](C)(CO)[C@@H]7[C@H](O)C[C@@]6(C)[C@]5(C)CC[C@@]34C)OCC(O)C2O)C(O)C(O)C1O (stereo not given in full) | > 7.5 µM |  | > 7.5 µM | > 7.5 µM | > 7.5 µM | > 7.5 µM | > 7.5 µM |  | > 7.5 µM | > 7.5 µM |  |  |  |  |  |  |  |  | 
COC(=O)c1cnn2c1n[n+]([O-])c1ccccc12 | > 100 µM | > 100 µM | > 100 µM |  | > 100 µM | > 100 µM | > 100 µM | > 100 µM |  | > 100 µM |  |  |  |  |  |  |  |  | 
CC(NC(C)(C)C)C(=O)c1cccc(Cl)c1 (stereo not given) | > 100 µM | > 100 µM | > 100 µM |  |  |  |  | > 100 µM |  | > 100 µM |  |  |  |  |  |  |  |  | 
COc1cccc(NC(=O)C(C#N)=C(SC)SC)c1 | > 100 µM | > 100 µM | > 100 µM | > 100 µM | > 100 µM | > 100 µM | > 100 µM |  | > 100 µM | > 100 µM |  |  |  |  |  |  |  |  | 
Fc1ccccc1C1SCc2nc3cc4ccccc4cc3n21 (stereo not given) | 51.5 µM | > 100 µM | > 100 µM | > 100 µM |  | > 100 µM | > 100 µM | > 100 µM | > 100 µM | > 100 µM |  |  |  |  |  |  |  |  | 
Cc1n[nH]c(=O)n1/N=C/c1ccc([N+](=O)[O-])o1 | 36.3 µM | 35.7 µM | 34.3 µM | 26.2 µM |  | 74.9 µM | 18.6 µM | > 58.3 µM | > 100 µM | > 64.4 µM |  |  |  |  |  |  |  |  | 
CC1OC(O[C@H]2/C=C/C=C/C=C/C=C/C=C/C=C/C=C/[C@H](C)[C@@H](O)[C@@H](C)[C@H](C)OC(=O)CC(O)CC(O)CCC(O)C(O)CC(O)C[C@]3(O)C[C@H](O)C(C(=O)O)C(C2)O3)C(O)[C@H](N)C1O (stereo not given in full) |  | 3.11 µM | 11 µM | 54 µM | 15.6 µM | 15.7 µM | 3.69 µM | 59 µM | 6.52 µM | 3.11 µM | 1.67 µM | 3.4 µM | 12 µM | 1.57 µM | 3.16 µM | 4.24 µM | 2.01 µM | 16.6 µM | 2.57 µM
OC1(c2ccccc2)CSC2=Nc3ccccc3C3CCN1N23 (stereo not given) | 34.4 µM | 74.3 µM | 28.6 µM | 39.1 µM | 69.6 µM | 31.9 µM | 34 µM |  | 37.4 µM | 50 µM |  |  |  |  |  |  |  |  | 
CCNC1=C(NC(=O)CC)C(=O)c2ccccc2C1=O | > 100 µM | > 100 µM | > 100 µM | > 100 µM | > 100 µM | > 100 µM |  | > 100 µM | > 100 µM | > 100 µM |  |  |  |  |  |  |  |  | 
CCOC(=O)CSc1nnc(C(Sc2nc(-c3ccccc3)c(-c3ccccc3)[nH]2)C(C)C)n1-c1ccccc1 (stereo not given) | > 31.6 µM | > 31.6 µM | > 31.6 µM | > 31.6 µM | > 10 µM | 64.1 µM |  | > 86.9 µM | > 31.6 µM | > 10 µM |  |  |  |  |  |  |  |  | 
O=C(CC(=O)Nc1ccccc1)N/N=C/c1cc(N=Nc2ccc(Br)cc2)ccc1O | > 10 µM | > 10 µM | > 10 µM | > 10 µM | > 10 µM | > 10 µM |  | > 10 µM |  | > 10 µM |  |  |  |  |  |  |  |  | 
CCN(CC)CCNCc1cc(Cl)cc2c1OCOC2 |  | > 10 µM | > 10 µM | > 10 µM |  | > 10 µM | > 10 µM | > 10 µM | > 10 µM | > 10 µM |  |  |  |  |  |  |  |  | 
Brc1c(C#CCC2CCCCC2)ccc(C#CCC2CCCCC2)c1Br | > 100 µM | > 100 µM | > 100 µM | > 100 µM | > 100 µM | > 100 µM | > 100 µM | > 100 µM | > 100 µM |  |  |  |  |  |  |  |  |  | 
Nc1ccc(CCN2CCN(CCCc3ccccc3)CC2)cc1 | > 100 µM | > 100 µM | > 100 µM | > 100 µM |  | > 100 µM | > 100 µM | > 100 µM | > 100 µM | > 100 µM |  |  |  |  |  |  |  |  | 
Nc1ccc(C(=O)NN2C(=O)C(Cl)C2c2ccccc2)cc1 (stereo not given) | > 100 µM | > 100 µM | > 100 µM | > 100 µM | > 100 µM |  |  | > 100 µM | > 100 µM | > 100 µM |  |  |  |  |  |  |  |  | 
COc1ccc(CSc2ccccc2Cn2cccc2)cc1OC | > 100 µM | > 100 µM | > 100 µM | > 100 µM |  |  | > 100 µM | > 100 µM | > 100 µM | > 100 µM |  |  |  |  |  |  |  |  | 
CC(C)=C/C=C1/CS(=O)(=O)C=C1C | > 100 µM | > 100 µM | > 100 µM | > 100 µM |  | > 100 µM | > 100 µM | > 100 µM | > 100 µM | > 100 µM |  |  |  |  |  |  |  |  | 
